Results on five molecules are retold here after patent publication US4452814A, “Nitrosourea derivatives” (priority 1981, dated 1984).

Data set [1] has as its system experimental leukemia and tumors. Conditions: wide variety of experimental leukemia and tumors; cited from earlier work.
Data set [2] is described as follows: Acute toxicity (LD50) in BDF1 male mice, i.p. or i.v., Litchfield-Wilcoxon's method. It is filed as in vivo. As to conditions: BDF1 male mice about 6 weeks old, observed after 21 days. The source says:
The nitrosourea derivatives of formulae (I), (II) and (III) according to this invention are further characterized by their low toxicity. Thus, acute toxicity represented by LD50 of some typical compounds of formula (I), when administered intraperitoneally (i.p.) or intravenously (i.v.) to BDF1 male mice aged about 6-weeks old and observed after the lapse of 21 days according to Litchfield-Wilcoxon's method, is as follows: […]

The subject of the next data set is Leukemia L 1210 cells. The experiment in a line: Antileukemic activity on Leukemia L 1210 in mice (i.p. inoculated, compound i.p.). It is filed as in vivo, Male BDF1 mice. Conditions: for Mean survival days, treated: control 7.7. The method, then: Antileukemic activity of a typical nitrosourea derivative of formula (I) according to this invention was tested on Leukemia L 1210 in mice, details of which are given below.
Male BDF1 mice, aged about 7 weeks old and weighing 22±1 g were used in groups of five animals for each test.
Leukemia L 1210 cells were inoculated intraperitoneally in a concentration of 1×10^6 cells/0.05 ml/mouse.
The test compound was dissolved in a physiological salt solution to give a series of solutions in predetermined concentrations and 0.1 ml of the each solution was administered intraperitoneally to each mouse once a day from the 24th hour after the tumor cell inoculation for 3 consecutive days. The antileukemic activity of the test compound was assessed by mean survival days and percentage increase in life-span. The percentage increase in life-span (ILS) was calculated as follows: [formula] T: The mean survival days of the treated animals C: The mean survival days of the untreated animals
The control test for this purpose was carried out in the same way as that used for the test compound except that 0.1 ml of the physiological salt solution was administered in place of the solution of the test compound.

Where [3] appears, read: 0.5 mg/kg i.p. once a day for 3 days.
Where [4] appears, read: 1 mg/kg i.p. once a day for 3 days.
Setting [5] is: 2 mg/kg i.p. once a day for 3 days.
[6] abbreviates: 8 mg/kg i.p. once a day for 3 days.
The mark [7] stands for this setting: 16 mg/kg i.p. once a day for 3 days.

Each structure is given as a SMILES string. A value given as a limit tells only on which side of the number the result lay.

Regarding `O=NN(CCCl)C(=O)N[C@H]1[C@H](O)CCC[C@@H]1O` [DONU, 1-(2-chloroethyl)-3-(1,3/2N-dihydroxycyclohexyl)-1-nitrosourea], in data set [1], the “antitumor activity, in words” value is listed as “broad spectrum of antitumor activity”.
Turning to `O=NN(CCCl)C(=O)N[C@@H]1O[C@H](CO)[C@@H](O)[C@H](O)[C@H]1O` [GANU, 1-(2-chloroethyl)-3-(β-D-glucopyranosyl)-1-nitrosourea], in data set [1], the “antitumor activity, in words” value was “broad spectrum of antitumor activity”.
For `NC(=O)C1CCCN1C(=O)N(CCCl)N=O` (stereo not drawn) [N-[N'-(2-chloroethyl)-N'-nitrosocarbamoyl]-proline amide], the LD50 (in general, the dose at which mortality reaches 50%) in data set [2] (i.p.) is listed as 219.6 mg/kg; in data set [2] (i.v.), 195.4 mg/kg.
For the molecule `NC(=O)CNC(=O)N(CCCl)N=O` [N-[N'-(2-chloroethyl)-N'-nitrosocarbamoyl]glycine amide], the “ILS (percentage increase in life-span)” value is given as 32.5% in the data set with Leukemia L 1210 cells (setting [3]); 37.7% with Leukemia L 1210 cells (setting [4]); 81.8% in the data set with Leukemia L 1210 cells (setting [5]); more than 679.2% in the data set with Leukemia L 1210 cells (setting [6]); more than 679.2% in the data set on Leukemia L 1210 cells (setting [7]). Moreover, the “Mean survival days, treated” value was 10.2 days with Leukemia L 1210 cells (setting [3]); 10.6 days with Leukemia L 1210 cells (setting [4]); 14.0 days in the data set with Leukemia L 1210 cells (setting [5]); more than 60.0 days in the data set with Leukemia L 1210 cells (setting [6]); more than 60.0 days in the data set on Leukemia L 1210 cells (setting [7]). For the same molecule, in data set [2] (i.v.), the LD50 was 22.4 mg/kg. Besides, in data set [2] (mouse, in vivo, ip), the median lethal dose (LD50) at 504 h was found to be 21.2 mg/kg.
Consider `CN(CC(N)=O)C(=O)N(CCCl)N=O` [N-[N'-(2-chloroethyl)-N'-nitrosocarbamoyl]sarcosine amide], for which the LD50 was 392.0 mg/kg in data set [2] (i.p.) and 426.6 mg/kg in data set [2] (i.v.).
